PubChem BioAssay AID1745844 (Carcinogenic Potency Database (CPDB), 2022)

Test system: rodent lifetime carcinogenesis bioassay, tumor incidence TD50
Assay: carcinogenic potency in animals, long-term in vivo studies, CPDB compilation (AID 1745844)
Conditions: by gavage

ClCC(Cl)CCl
TD50 (mouse, strain B6C3F1, females, site: Harderian gland, lesion: adenoma + adenoma, bilateral, dosed 88 weeks, study length 104 weeks): 7.05 mg/kg/day
TD50 (mouse, strain B6C3F1, females, site: all sites, lesion: histiocytic sarcoma + malignant lymphoma, histiocytic type + malignant lymphoma, mixed type + malignant lymphoma, lymphocytic, dosed 88 weeks, study length 104 weeks): 8.64 mg/kg/day
TD50 (mouse, strain B6C3F1, females, site: all sites, lesion: malignant lymphoma, histiocytic type + malignant lymphoma, mixed type + malignant lymphoma, lymphocytic type + malignant lymph, dosed 88 weeks, study length 104 weeks): 7.08 mg/kg/day
TD50 (mouse, strain B6C3F1, females, site: any site (literature study), lesion: several types, types named in the paper, dosed 88 weeks, study length 104 weeks): 0.806 mg/kg/day
TD50 (mouse, strain B6C3F1, females, site: forestomach + Harderian gland + liver + palate + pharynx + uterus, lesion: squamous-cell carcinoma + squamous-cell papilloma + adenoma + adenoma, bilateral + hepatocellular adenoma + hepatocellular carcino, dosed 88 weeks, study length 104 weeks): 0.826 mg/kg/day
TD50 (mouse, strain B6C3F1, females, site: forestomach, lesion: squamous-cell carcinoma + squamous-cell papilloma, dosed 88 weeks, study length 104 weeks): 0.828 mg/kg/day
TD50 (mouse, strain B6C3F1, females, site: forestomach, lesion: squamous-cell carcinoma, dosed 88 weeks, study length 104 weeks): 0.97 mg/kg/day
TD50 (mouse, strain B6C3F1, females, site: forestomach, lesion: squamous-cell papilloma, dosed 88 weeks, study length 104 weeks): 1.64 mg/kg/day
TD50 (mouse, strain B6C3F1, females, site: liver, lesion: hepatocellular adenoma + hepatoblastoma + hepatocellular carcinoma, dosed 88 weeks, study length 104 weeks): 2.93 mg/kg/day
TD50 (mouse, strain B6C3F1, females, site: liver, lesion: hepatocellular adenoma + hepatocellular carcinoma, dosed 88 weeks, study length 104 weeks): 2.93 mg/kg/day
TD50 (mouse, strain B6C3F1, females, site: liver, lesion: hepatocellular adenoma, dosed 88 weeks, study length 104 weeks): 3.33 mg/kg/day
TD50 (mouse, strain B6C3F1, females, site: liver, lesion: hepatocellular carcinoma, dosed 88 weeks, study length 104 weeks): 28.7 mg/kg/day
TD50 (mouse, strain B6C3F1, females, site: lung, lesion: alveolar/bronchiolar adenoma + alveolar/bronchiolar carcinoma, dosed 88 weeks, study length 104 weeks): 14.3 mg/kg/day
TD50 (mouse, strain B6C3F1, females, site: lung, lesion: alveolar/bronchiolar adenoma, dosed 88 weeks, study length 104 weeks): 14.6 mg/kg/day
TD50 (mouse, strain B6C3F1, females, site: palate + pharynx + tongue, lesion: squamous-cell carcinoma + squamous-cell papilloma, dosed 88 weeks, study length 104 weeks): 47 mg/kg/day
TD50 (mouse, strain B6C3F1, females, site: palate + pharynx, lesion: squamous-cell carcinoma, dosed 88 weeks, study length 104 weeks): 154 mg/kg/day
TD50 (mouse, strain B6C3F1, females, site: uterus, lesion: endometrial stromal polyp, dosed 88 weeks, study length 104 weeks): 22.9 mg/kg/day
TD50 (mouse, strain B6C3F1, females, site: uterus, lesion: endometrium, adenocarcinoma, dosed 88 weeks, study length 104 weeks): 8.47 mg/kg/day
TD50 (mouse, strain B6C3F1, females, site: uterus, lesion: endometrium, adenoma + endometrium, adenocarcinoma, dosed 88 weeks, study length 104 weeks): 6.62 mg/kg/day
TD50 (mouse, strain B6C3F1, females, site: uterus, lesion: endometrium, adenoma, dosed 88 weeks, study length 104 weeks): 34.9 mg/kg/day
TD50 (mouse, strain B6C3F1, males, site: Harderian gland, lesion: adenoma, dosed 90 weeks, study length 104 weeks): 13.7 mg/kg/day
TD50 (mouse, strain B6C3F1, males, site: any site (literature study), lesion: several types, types named in the paper, dosed 90 weeks, study length 104 weeks): 1.06 mg/kg/day
TD50 (mouse, strain B6C3F1, males, site: forestomach + Harderian gland + liver, lesion: squamous-cell carcinoma + squamous-cell papilloma + adenoma + hepatocellular adenoma + hepatocellular carcinoma, dosed 90 weeks, study length 104 weeks): 0.996 mg/kg/day
TD50 (mouse, strain B6C3F1, males, site: forestomach, lesion: squamous-cell carcinoma + squamous-cell papilloma, dosed 90 weeks, study length 104 weeks): 0.928 mg/kg/day
TD50 (mouse, strain B6C3F1, males, site: forestomach, lesion: squamous-cell carcinoma, dosed 90 weeks, study length 104 weeks): 1.34 mg/kg/day
TD50 (mouse, strain B6C3F1, males, site: forestomach, lesion: squamous-cell papilloma, dosed 90 weeks, study length 104 weeks): 1.63 mg/kg/day
TD50 (mouse, strain B6C3F1, males, site: liver, lesion: hepatocellular adenoma + hepatoblastoma + hepatocellular carcinoma, dosed 90 weeks, study length 104 weeks): 2.13 mg/kg/day
TD50 (mouse, strain B6C3F1, males, site: liver, lesion: hepatocellular adenoma + hepatocellular carcinoma, dosed 90 weeks, study length 104 weeks): 2.13 mg/kg/day
TD50 (mouse, strain B6C3F1, males, site: liver, lesion: hepatocellular adenoma, dosed 90 weeks, study length 104 weeks): 2.87 mg/kg/day
TD50 (mouse, strain B6C3F1, males, site: liver, lesion: hepatocellular carcinoma, dosed 90 weeks, study length 104 weeks): 6.28 mg/kg/day
TD50 (mouse, strain B6C3F1, males, site: lung, lesion: alveolar/bronchiolar adenoma + alveolar/bronchiolar carcinoma, dosed 90 weeks, study length 104 weeks): 9.32 mg/kg/day
TD50 (mouse, strain B6C3F1, males, site: lung, lesion: alveolar/bronchiolar adenoma, dosed 90 weeks, study length 104 weeks): 11.2 mg/kg/day
TD50 (mouse, strain B6C3F1, males, site: tongue, lesion: squamous-cell papilloma, dosed 90 weeks, study length 104 weeks): 454 mg/kg/day
TD50 (rat, strain Fischer 344, females, site: Zymbal's gland, lesion: carcinoma, dosed 91 weeks, study length 105 weeks): 59 mg/kg/day
TD50 (rat, strain Fischer 344, females, site: all sites, lesion: mononuclear-cell leukemia, dosed 91 weeks, study length 105 weeks): 7.11 mg/kg/day
TD50 (rat, strain Fischer 344, females, site: any site (literature study), lesion: several types, types named in the paper, dosed 91 weeks, study length 105 weeks): 1.02 mg/kg/day
TD50 (rat, strain Fischer 344, females, site: clitoral gland + forestomach + mammary gland + palate + pharynx + tongue + Zymbal's gland, lesion: adenoma + adenoma, bilateral + carcinoma + carcinoma, bilateral + squamous-cell carcinoma + squamous-cell papilloma + adenocarcinoma, dosed 91 weeks, study length 105 weeks): 1.07 mg/kg/day
TD50 (rat, strain Fischer 344, females, site: clitoral gland, lesion: adenoma + adenoma, bilateral + carcinoma + carcinoma, bilateral, dosed 91 weeks, study length 105 weeks): 3.58 mg/kg/day
TD50 (rat, strain Fischer 344, females, site: clitoral gland, lesion: adenoma + adenoma, bilateral, dosed 91 weeks, study length 105 weeks): 4.04 mg/kg/day
TD50 (rat, strain Fischer 344, females, site: clitoral gland, lesion: carcinoma + carcinoma, bilateral, dosed 91 weeks, study length 105 weeks): 49.5 mg/kg/day
TD50 (rat, strain Fischer 344, females, site: colon + jejunum, lesion: adenocarcinoma, dosed 91 weeks, study length 105 weeks): 78.4 mg/kg/day
TD50 (rat, strain Fischer 344, females, site: forestomach, lesion: squamous-cell carcinoma + squamous-cell papilloma, dosed 91 weeks, study length 105 weeks): 1.64 mg/kg/day
TD50 (rat, strain Fischer 344, females, site: forestomach, lesion: squamous-cell carcinoma, dosed 91 weeks, study length 105 weeks): 7.77 mg/kg/day
TD50 (rat, strain Fischer 344, females, site: forestomach, lesion: squamous-cell papilloma, dosed 91 weeks, study length 105 weeks): 1.94 mg/kg/day
TD50 (rat, strain Fischer 344, females, site: liver, lesion: hepatocellular adenoma + hepatoblastoma + hepatocellular carcinoma, dosed 91 weeks, study length 105 weeks): 81.4 mg/kg/day
TD50 (rat, strain Fischer 344, females, site: mammary gland, lesion: adenocarcinoma + adenoma + fibroadenoma, dosed 91 weeks, study length 105 weeks): 1.98 mg/kg/day
TD50 (rat, strain Fischer 344, females, site: mammary gland, lesion: adenocarcinoma + adenoma, dosed 91 weeks, study length 105 weeks): 5.5 mg/kg/day
TD50 (rat, strain Fischer 344, females, site: mammary gland, lesion: adenocarcinoma, dosed 91 weeks, study length 105 weeks): 5.91 mg/kg/day
TD50 (rat, strain Fischer 344, females, site: mammary gland, lesion: adenoma + fibroadenoma, dosed 91 weeks, study length 105 weeks): 3.32 mg/kg/day
